Test results published in article PMC6692352, “DF2726A, a new IL-8 signalling inhibitor, is able to counteract chemotherapy-induced neuropathic pain” (Scientific Reports, 2019).

Key:
F11 cells = experiment: Cell viability assay in F11 neuronal cells; conditions: 24 h, 5–60 µM
Method: For the subsequent experiments, DF2726A was used at a final concentration of 1 µM, and oxaliplatin at a final concentration of 20 µM. For comparison, paclitaxel alone or in combination with DF2726A was also used.
F11 hybridoma cells (ECACC 08062601), chosen as a model of DRG neurons[22],[32],[33] were cultivated in DMEM (Euroclone, Milan, Italy) supplemented with 10% FBS (Sigma-Aldrich, St. Louis, MO, USA), 1% penicillin/streptomycin (Euroclone, MI, Italy) and 1% glutamine (Euroclone) at 37 °C, in humidified 95% air with 5% CO2 atmosphere. For all the experiments, cells were used at 18th passage.
Supplementary Fig. 2: Effect of DF2726A, oxaliplatin and paclitaxel treatment on neuronal cell
viability. Cell viability assay of F11 cells after treatment at different concentrations of DF 2726A
(DF; 1-20 µM), oxaliplatin (OXA, 5-60 µM), paclitaxel (PAC, 5-20 nM) and the combination of 20
µM oxaliplatin+DF2726A (Oxa+DF) and paclitaxel+DF2726A (PAC+DF) at 24 h. Data are means

[1] = set-up: method as in PMID 28423567; conditions: p.o. administration ref 22; cited from earlier work

Row | SMILES | Neuronal cell viability (F11 cells) | half-life [1]
1 | O=C1[O][Pt]2([NH][C@@H]3CCCC[C@H]3[NH]2)[O]C1=O [oxaliplatin, reference compound] | ineffective in modulating neuronal cell viability | –
2 | CC(C)Cc1ccc([C@@H](C)C(=O)NS(C)(=O)=O)cc1 [reparixin] | – | 1.78 h
